Results taken from patent US8722849B2, “Polypeptides” (Novo Nordisk A/S, priority 2011, dated 2014).
pEC50: −log10 of the molar value. Converted amounts (≈) assume the structure as drawn. Where two headings read alike, the source gives them in different places. Starred links: 1 amine or outer side, 2 acyl side, 3 side chain; linkers in the order of their positions; H or OH if unused. Positions of bridges follow the written chain, without caps; N, C: chain ends. Residues, ends and D or L forms follow the SMILES beside them. *: point of attachment. C20 diacid = O=C(O)CCCCCCCCCCCCCCCCCCC(=O)*; γGlu = O=C(O)[C@H](CCC(=O)[*:2])N[*:1]

Key:
[1] = biological target: T1, human amylin receptor (amylin 3(a) receptor: human calcitonin receptor + RAMP-3) (Homo sapiens, UniProt O60896+P30988); assay: Assay (II)a functional CRE-luciferase assay, human amylin receptor; type: cell-based; settings: Table 2; BHK amylin 3(a)-receptor/CRE-luc cells
T1 construct: expressed in transfected cells; host or cells: BHK570
T1 sequence (P30988 25-474): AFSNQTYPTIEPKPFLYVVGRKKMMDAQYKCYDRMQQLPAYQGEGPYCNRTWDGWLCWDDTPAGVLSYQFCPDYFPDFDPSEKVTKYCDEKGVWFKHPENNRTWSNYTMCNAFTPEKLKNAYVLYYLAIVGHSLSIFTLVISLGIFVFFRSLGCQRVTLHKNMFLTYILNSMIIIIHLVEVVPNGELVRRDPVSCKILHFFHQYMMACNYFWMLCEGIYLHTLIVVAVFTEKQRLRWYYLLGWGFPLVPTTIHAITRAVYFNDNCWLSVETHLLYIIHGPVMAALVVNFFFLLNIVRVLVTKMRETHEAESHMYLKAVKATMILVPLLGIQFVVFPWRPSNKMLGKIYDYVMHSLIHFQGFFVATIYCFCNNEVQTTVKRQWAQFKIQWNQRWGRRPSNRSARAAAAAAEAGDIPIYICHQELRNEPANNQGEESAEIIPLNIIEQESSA
T1 sequence (O60896 24-148 partner): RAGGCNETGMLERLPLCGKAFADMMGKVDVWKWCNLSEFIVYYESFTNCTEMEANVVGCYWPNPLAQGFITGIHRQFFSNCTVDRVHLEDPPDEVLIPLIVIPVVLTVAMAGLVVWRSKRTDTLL

[2] = biological target: T2, human calcitonin receptor (Homo sapiens, UniProt P30988); assay: Assay (II)a functional CRE-luciferase assay, human calcitonin receptor; type: cell-based; settings: Table 7; human calcitonin (CTa) receptor
T2 construct: expressed in transfected cells; host or cells: BHK570
T2 sequence (P30988 25-474): T1 sequence (P30988 25-474)

[3] = Assay (III) ThT fibrillation assay for physical stability; type: physicochemical
In short: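 Freshly prepared formulations, pH-adjusted, with 1 μM ThT; four or eight replicates incubated at 37 °C under 960 rpm orbital shaking. Fluorescence (ex 444/em 485 nm) read every 20 min; […]. Peptide concentration measured by RP-HPLC before and after the run.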

[4] = Assay (IV) determination of solubility; type: physicochemical
In short: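 Polypeptide in water (~500 nmol/ml) mixed 1:1 with 100 mM glycylglycine (pH 3.0–5.0) or bistrispropane (pH 6.0–8.0) buffers. Held 18 hours at room temperature, then centrifuged. Polypeptide remaining in solution quantified by HPLC.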

[5] = bistrispropane buffer, pH 6, pH 6.0, read-out: Solubility pH 6.0
[6] = bistrispropane buffer, pH 6.5, pH 6.5, read-out: Solubility pH 6.5
[7] = bistrispropane buffer, pH 7, pH 7.0, 18 hours at room temperature, Table 3, read-out: Solubility pH 7.0
[8] = bistrispropane buffer, pH 7, pH 7.0, read-out: Solubility pH 7.0
[9] = bistrispropane buffer, pH 7.5, pH 7.5, read-out: Solubility pH 7.5
[10] = bistrispropane buffer, pH 8, pH 8.0, read-out: Solubility pH 8.0
[11] = glycylglycine buffer, pH 3, pH 3.0, read-out: Solubility pH 3.0
[12] = glycylglycine buffer, pH 4, pH 4.0, 18 hours at room temperature, Table 2, read-out: Solubility pH 4.0
[13] = glycylglycine buffer, pH 4, pH 4.0, read-out: Solubility pH 4.0
[14] = glycylglycine buffer, pH 5, pH 5.0, read-out: Solubility pH 5.0
[15] = bistrispropane buffer, pH 7, pH 7.0, Table 8, read-out: Solubility pH 7.0
[16] = bistrispropane buffer, pH 7, pH 7.0, Table 9, read-out: Solubility pH 7.0
[17] = bistrispropane buffer, pH 7.5, pH 7.5, Table 9, read-out: Solubility pH 7.5

Row | pEC50 [1] | pEC50 [2] | ThT pH 4.0 lag time (h) ([3]; ThT fibrillation assay) | solubility at 18 h [4, 5] [µM] | solubility at 18 h [4, 6] [µM] | solubility at 18 h [4, 7] [µM] | solubility at 18 h [4, 8] [µM] | solubility at 18 h [4, 9] [µM] | solubility at 18 h [4, 10] [µM] | solubility at 18 h [4, 11] [µM] | solubility at 18 h [4, 12] [µM] | solubility at 18 h [4, 13] [µM] | solubility at 18 h [4, 14] [µM] | ThT pH 4.0 lag time ([3]; Table 8) [h] | ThT pH 4.0 lag time ([3]; Table 9) [h] | ThT pH 4.0 lag time ([3]; ThT fibrillation assay) [h] | solubility at 18 h [4, 15] [µM] | solubility at 18 h [4, 16] [µM] | solubility at 18 h [4, 17] [µM] | Compound
1 | 9.41 | 9.61 | 24 | > 200 | 194 (≈ 897 µg/mL) | > 200 | > 200 | > 200 | > 200 | > 200 | > 200 | > 200 | > 200 | – | – | – | – | – | – | CC[C@H](C)[C@H](NC(=O)[C@@H]1CCCN1C(=O)CNC(=O)[C@H](Cc1ccccc1)NC(=O)[C@H](CC(N)=O)NC(=O)[C@H](CCC(N)=O)NC(=O)[C@H](CO)NC(=O)[C@H](CO)NC(=O)[C@H](Cc1c[nH]cn1)NC(=O)[C@H](Cc1c[nH]cn1)NC(=O)[C@H](CC(C)C)NC(=O)[C@H](Cc1ccccc1)NC(=O)[C@H](CCC(=O)O)NC(=O)[C@H](C)NC(=O)[C@H](CC(C)C)NC(=O)[C@H](CCCNC(=N)N)NC(=O)[C@H](CCC(N)=O)NC(=O)[C@@H](NC(=O)[C@H](C)NC(=O)[C@@H]1CSSC[C@H](NC(=O)[C@H](CCCCN)NC(=O)[C@H](CCC(=O)O)NC(=O)CC[C@H](NC(=O)CCCCCCCCCCCCCCCCCCC(=O)O)C(=O)O)C(=O)N[C@@H](CC(N)=O)C(=O)N[C@@H]([C@@H](C)O)C(=O)N[C@@H](C)C(=O)N[C@@H]([C@@H](C)O)C(=O)N1)[C@@H](C)O)C(=O)N[C@@H](CC(C)C)C(=O)N1CCC[C@H]1C(=O)N1CCC[C@H]1C(=O)N[C@H](C(=O)N[C@@H](CC(N)=O)C(=O)N[C@H](C(=O)NCC(=O)N[C@@H](CO)C(=O)N[C@@H](Cc1c[nH]cn1)C(=O)N[C@H](C(=O)N[C@@H](Cc1ccc(O)cc1)C(N)=O)[C@@H](C)O)C(C)C)[C@@H](C)O [Example 129, N-alpha-[(S)-4-Carboxy-4-(19-carboxynonadecanoylamino)butyryl]-Glu-[Glu14,His17,Gln21,His35]-pramlintide] ({C20 diacid-γGlu}-EKCNTATCATQRLAEFLHHSSQNFGPILPPTNVGSHTY-NH2; disulfide 3-8 (inferred); C-terminus assumed)
2 | 10.26 | 10.50 | >45 | > 200 | > 200 | > 200 | > 200 | > 200 | > 200 | > 200 | > 200 | > 200 | > 200 | >45 | >45 | >45 | > 200 | > 200 | > 200 | CC[C@H](C)[C@H](NC(=O)[C@@H]1CCCN1C(=O)CNC(=O)[C@H](Cc1ccccc1)NC(=O)[C@H](CC(N)=O)NC(=O)[C@H](CCC(N)=O)NC(=O)[C@H](CO)NC(=O)[C@H](CO)NC(=O)[C@H](Cc1c[nH]cn1)NC(=O)[C@H](Cc1c[nH]cn1)NC(=O)[C@H](CC(C)C)NC(=O)[C@H](Cc1ccccc1)NC(=O)[C@H](CCC(=O)O)NC(=O)[C@H](C)NC(=O)[C@H](CC(C)C)NC(=O)[C@H](CCCNC(=N)N)NC(=O)[C@H](CCC(N)=O)NC(=O)[C@@H](NC(=O)[C@H](C)NC(=O)[C@@H]1CSSC[C@H](NC(=O)[C@H](CCCCN)NC(=O)CC[C@H](NC(=O)CCCCCCCCCCCCCCCCCCC(=O)O)C(=O)O)C(=O)N[C@@H](CC(N)=O)C(=O)N[C@@H]([C@@H](C)O)C(=O)N[C@@H](C)C(=O)N[C@@H]([C@@H](C)O)C(=O)N1)[C@@H](C)O)C(=O)N[C@@H](CC(C)C)C(=O)N1CCC[C@H]1C(=O)N1CCC[C@H]1C(=O)N[C@H](C(=O)N[C@@H](CC(N)=O)C(=O)N[C@H](C(=O)NCC(=O)N[C@@H](CO)C(=O)N[C@@H](CC(N)=O)C(=O)N[C@H](C(=O)N1CCC[C@H]1C(N)=O)[C@@H](C)O)C(C)C)[C@@H](C)O [Example 130, N-alpha-[(S)-4-Carboxy-4-(19-carboxynonadecanoylamino)butyryl]-[Glu14,His17,Gln21,Pro37]-pramlintide] ({C20 diacid-γGlu}-KCNTATCATQRLAEFLHHSSQNFGPILPPTNVGSNTP-NH2; disulfide 2-7 (inferred))
3 | 9.99 | 10.01 | >45 | > 200 | > 200 | > 200 | > 200 | > 200 | > 200 | > 200 | > 200 | > 200 | > 200 | >45 | >45 | >45 | > 200 | > 200 | > 200 | CC[C@H](C)[C@H](NC(=O)[C@@H]1CCCN1C(=O)CNC(=O)[C@H](Cc1ccccc1)NC(=O)[C@H](CC(N)=O)NC(=O)[C@H](CC(N)=O)NC(=O)[C@H](CO)NC(=O)[C@H](CO)NC(=O)[C@H](Cc1c[nH]cn1)NC(=O)[C@H](Cc1c[nH]cn1)NC(=O)[C@H](CC(C)C)NC(=O)[C@H](Cc1ccccc1)NC(=O)[C@H](CCC(=O)O)NC(=O)[C@H](C)NC(=O)[C@H](CC(C)C)NC(=O)[C@H](CCCNC(=N)N)NC(=O)[C@H](CCC(N)=O)NC(=O)[C@@H](NC(=O)[C@H](C)NC(=O)[C@@H]1CSSC[C@H](NC(=O)[C@H](CCCCN)NC(=O)CC[C@H](NC(=O)CCCCCCCCCCCCCCCCCCC(=O)O)C(=O)O)C(=O)N[C@@H](CC(N)=O)C(=O)N[C@@H]([C@@H](C)O)C(=O)N[C@@H](C)C(=O)N[C@@H]([C@@H](C)O)C(=O)N1)[C@@H](C)O)C(=O)N[C@@H](CC(C)C)C(=O)N1CCC[C@H]1C(=O)N1CCC[C@H]1C(=O)N[C@H](C(=O)N[C@@H](CC(N)=O)C(=O)N[C@H](C(=O)NCC(=O)N[C@@H](CO)C(=O)N[C@@H](CCC(N)=O)C(=O)N[C@H](C(=O)N1CCC[C@H]1C(N)=O)[C@@H](C)O)C(C)C)[C@@H](C)O [Example 135, N-alpha-[(S)-4-Carboxy-4-(19-carboxynonadecanoylamino)butyryl]-[Glu14,His17,Gln35,Pro37]-pramlintide] ({C20 diacid-γGlu}-KCNTATCATQRLAEFLHHSSNNFGPILPPTNVGSQTP-NH2; disulfide 2-7 (inferred))
